Experimental data published in patent publication USRE38506E1, “Potent inducers of terminal differentiation and methods of use thereof” (Sloan-Kettering Institute for Cancer Research, priority 1991, dated 2004).

Assays:
MELC 745A-DS19 cells = assay: Induction of terminal differentiation of murine erythroleukemia cells (benzidine reactivity); format: cell-based; details: for Optimal Conc.: Table 1; for Benzidine Reactive Cells: at optimal concentration
Method: MELC 745A-DS19 cells and the variants of MELC derived from this cell line, namely, the vincristine-resistant MELC V3.17 and VCR.C(2)15 cell lines (26), and the dimethylsulfoxide-resistant cell line, DR10 (39), were maintained in alpha minimal essential medium containing 10% fetal calf serum (16). Cell cultures for all experiments were initiated with cells in logarithmic growth phase (day 2 cultured cells) at a density of 10^5 cells/ml. Inducer compounds were added in the final concentrations indicated below, dissolved in culture medium without fetal calf serum unless otherwise indicated. Cell density and benzidine reactively were determined as described (16).
(§1) Commitment to terminal differentiation, characterized by limited cell division (colony size<32 cells) and accumulation of hemoglobin (benzidine reactive colonies) was assayed by a colony cloning assay using 2% methylcellulose as described (25) (see Table 1 for results). HL-60 human leukemia cells, derived from peripheral blood leukocytes of a patient with acute promyelocytic leukemia (40). Induced differentiation of HL-60 cells assayed by determining the proportion of cells that developed the capacity to reduce nitroblue tetrazolium (NBT) (41) (see Table 2 for results).

[1] = test system: HL-60 human leukemia cells; assay: Induction of Differentiation of HL-60 (NBT reduction); format: cell-based; details: for Optimal Conc.: HL-60, Table 2; for NBT Positive: HL-60, at optimal concentration
Method: as §1

SMILES | Optimal Conc. (MELC 745A-DS19 cells) [µM] | Benzidine Reactive Cells (MELC 745A-DS19 cells) [%] | Optimal Conc. [1] [µM] | NBT Positive [1] [%]
O=C(CCCCC(=O)Nc1ccccc1)NO [compound 1] | 80 | 70 |  | 
O=C(CCCCCC(=O)Nc1ccccc1)NO [compound 2] | 20 | 84 | 7 | 22
O=C(CCCCCCC(=O)Nc1ccccc1)NO [compound 3] |  | 70 | 1 | 21
O=C(CCCCCCCC(=O)Nc1ccccc1)NO [compound 4] | 20 | 8 |  | 
O=C(CCCCCCCCC(=O)Nc1ccccc1)NO [compound 5] | 20 | 15 |  | 
N#Cc1cccc(NC(=O)CCCCCCC(=O)O)c1 [compound 6] |  | 44 | 20 | 30
N#Cc1ccc(NC(=O)CCCCCCC(=O)O)cc1 [compound 7] |  | 52 | 20 | 21
O=C(O)CCCCCCC(=O)Nc1ccc([N+](=O)[O-])cc1 [compound 8] |  | 32 |  | 
O=C(O)CCCCCCC(=O)NC1CCCCC1 [compound 9] |  | 20 |  | 
O=C(O)CCCCCCC(=O)Nc1ccc(OCc2ccccc2)cc1 [compound 10] | 250 | 26 |  | 
CN(C)C(=O)CCCCCCC(=O)NO [compound 11] |  | 53 |  | 
O=C(O)CCCCCCC(=O)NO [compound 12] |  | 35 |  | 
COC(=O)CCCCCCC(=O)NO [compound 13] |  | 17 |  | 
N#CCCCCCC(=O)NO [compound 14] |  | 30 |  | 
CONC(=O)CCCCCCC(=O)NO [compound 15] |  | 43 |  | 
O=C(CCCCCCC(=O)NC1CCCCC1)NO [compound 16] |  | 35 |  | 
O=C(CCCCCCC(=O)N1CCCCC1)NO [compound 17] |  | 30 |  | 
CC(C)(C)ONC(=O)CCCCCCC(=O)NO [compound 18] |  | 38 |  | 
O=C(CCCCCCC(=O)NCc1ccccc1)NO [compound 19] |  | 24 |  | 
N#Cc1ccc(NC(=O)CCCCCCC(=O)NO)cc1 [compound 21] | 7 | 70 | 2 | 6
N#Cc1cccc(NC(=O)CCCCCCC(=O)NO)c1 [compound 22] | 5 | 55 | 1.7 | 28
N#Cc1ccccc1NC(=O)CCCCCCC(=O)NO [compound 23] | 16 | 65 |  | 
O=C(CCCCCCC(=O)Nc1cccc([N+](=O)[O-])c1)NO [compound 24] | 5 | 30 |  | 

SMILES | Optimal Conc. (MELC 745A-DS19 cells) [µM] | Benzidine Reactive Cells (MELC 745A-DS19 cells) [%] | Optimal Conc. [1] [µM] | NBT Positive [1] [%]
O=C(CCCCCCC(=O)Nc1ccc([N+](=O)[O-])cc1)NO [compound 25] | 0.8 | 30 | 3 | 18
O=C(CCCCCCC(=O)Nc1cccc(C(F)(F)F)c1)NO [compound 26] | 30 | 30 | 6 | 27
O=C(CCCCCCC(=O)Nc1ccc(C(F)(F)F)cc1)NO [compound 27] | 5 | 47 |  | 
Nc1ccccc1NC(=O)CCCCCCC(=O)NO [compound 28] | 20 | 54 |  | 
N#CCc1ccc(NC(=O)CCCCCCC(=O)NO)cc1 [compound 29] | 1 | 30 | 1 | 15
O=C(CCCCCCC(=O)Nc1cccc(Cl)c1)NO [compound 30] | 2 | 33 |  | 
[N-]=[N+]=Nc1ccc(NC(=O)CCCCCCC(=O)NO)cc1 [compound 31] | 2 | 47 | 2.5 | 7
O=C(CCCCCCC(=O)Nc1ccccc1F)NO [compound 32] | 4 | 65 |  | 
O=C(CCCCCCC(=O)Nc1cccc(F)c1)NO [compound 33] | 1 | 25 |  | 
O=C(CCCCCCC(=O)Nc1ccc(F)cc1)NO [compound 34] | 4 | 43 |  | 
O=C(CCCCCCC(=O)Nc1ccc(OCc2ccccc2)cc1)NO [compound 35] | 4 | 20 |  | 
COC(=O)c1ccc(NC(=O)CCCCCCC(=O)NO)cc1 [compound 36] | 4 | 28 | 1 | 32
CNC(=O)c1ccc(NC(=O)CCCCCCC(=O)NO)cc1 [compound 37] | 30 | 16 |  | 
O=C(CCCCCCC(=O)Nc1ccccc1Br)NO [compound 38] | 8 | 45 |  | 
O=C(CCCCCCC(=O)Nc1ccccc1Cl)NO [compound 39] | 4 | 34 |  | 
O=C(CCCCCCC(=O)Nc1ccc(Br)cc1)NO [compound 40] | 1.6 | 47 |  | 
O=C(CCCCCCC(=O)Nc1cccc(F)c1F)NO [compound 41] | 8 | 24 |  | 
O=C(CCCCCCC(=O)Nc1cc(F)c(F)cc1F)NO [compound 42] | 8 | 36 |  | 
O=C(CCCCCCC(=O)Nc1c(F)ccc(F)c1F)NO [compound 43] | 31 | 53 | 2 | 20
O=C(CCCCCCC(=O)Nc1c(F)cc(F)cc1F)NO [compound 44] | 16 | 47 |  | 
O=C(CCCCCCC(=O)Nc1ccc(F)cc1F)NO [compound 45] | 6 | 60 |  | 
O=C(CCCCCCC(=O)Nc1c(F)c(F)c(F)c(F)c1F)NO [compound 46] | 31 | 53 |  | 
O=C(CCCCCCC(=O)Nc1ccc(F)c(F)c1)NO [compound 47] | 4 | 61 |  | 

SMILES | Optimal Conc. (MELC 745A-DS19 cells) [µM] | Benzidine Reactive Cells (MELC 745A-DS19 cells) [%] | Optimal Conc. [1] [µM] | NBT Positive [1] [%]
O=C(CCCCCCC(=O)Nc1cc(F)c(F)c(F)c1)NO [compound 48] | 8 | 55 |  | 
O=C(CCCCCCC(=O)Nc1cc(F)ccc1F)NO [compound 49] | 4 | 70 |  | 
O=C(CCCCCCC(=O)Nc1cc(F)cc(F)c1)NO [compound 50] | 2 | 73 |  | 
COc1ccccc1NC(=O)CCCCCCC(=O)NO [compound 51] | 8 | 36 |  | 
COc1cccc(NC(=O)CCCCCCC(=O)NO)c1 [compound 52] | 6 | 38 |  | 
COc1ccc(NC(=O)CCCCCCC(=O)NO)cc1 [compound 53] | 6 | 37 |  | 
CN(C(=O)CCCCCCC(=O)NO)c1ccccc1 [compound 54] |  | 40 |  | 
O=C(NO)c1ccc(C(=O)Nc2ccccc2)cc1 [compound 55] |  | 53 |  | 
O=C(CCCCCCC(=O)Nc1ccc(C(=O)NO)cc1)Nc1ccc(C(=O)NO)cc1 [compound 57] | 8 | 10 |  | 
N#CCc1ccc(NC(=O)CCCCCCC(=O)Nc2ccc(CC#N)cc2)cc1 [compound 58] | 50 | 25 |  | 
O=C(CCCCCCC(=O)Nc1ccc(F)cc1F)Nc1ccc(F)cc1F [compound 59] | 500 | 54 |  | 
O=C(CCCCCCC(=O)Nc1c(F)cccc1F)Nc1c(F)cccc1F [compound 60] | 100 | 21 |  | 
O=C(CCCCCCC(=O)Nc1cc(F)cc(F)c1)Nc1cc(F)cc(F)c1 [compound 61] | 125 | 31 |  | 
O=C(CCCCCCC(=O)Nc1c(F)ccc(F)c1F)Nc1c(F)ccc(F)c1F [compound 62] | 250 | 28 |  | 
O=C(CCCCCCC(=O)Nc1c(F)cc(F)cc1F)Nc1c(F)cc(F)cc1F [compound 63] | 125 | 35 |  | 
O=C(CCCCCCC(=O)Nc1c(F)c(F)c(F)c(F)c1F)Nc1c(F)c(F)c(F)c(F)c1F [compound 64] | 125 | 13 |  | 
O=C(CCCCCCC(=O)Nc1ccc([N+](=O)[O-])cc1)Nc1ccc([N+](=O)[O-])cc1 [compound 65] | 25 | 14 |  | 
CC(CCCCCC(C)C(=O)N(C)C)C(=O)N(C)C (stereo not shown) [compound 66] |  | 80 |  | 
CC(CCCCC(C)C(=O)N(C)C)C(=O)N(C)C (stereo not shown) [compound 67] |  | 90 |  | 
CC(CCC(=O)NO)CCC(=O)NO [compound 68] |  | 56 |  | 
O=C(CCCCCC(CCCCCC(=O)NO)C(=O)NO)NO [compound 69] |  | 40 |  | 
O=C(CCC(F)(F)CCC(=O)NO)NO [compound 70] |  | 19 |  | 
